# According to US9440933B2, “Azole derivative, method for producing same, intermediate compound, and agricultural or horticultural chemical agent and industrial material protecting agent” (KUREHA CORPORATION, priority 2011, dated 2016):
# Assays:
# [1] = system: Wheat eye spot-causing microbe (Pseudocercoporella herpotrichoides); experiment: Antimicrobial activity to various pathogenic microbes: P.h; settings: 50 mg/L
# Procedure: (§1) An inventive compound was dissolved in dimethylsulfoxide 2 ml. The solution 0.6 ml was added to a PDA medium (potato-dextrose-agar medium) 60 ml at around 60° C.
# (§2) The plates were cultured at 25° C. for 14 days after inoculation and the diameter of the microbial colony was determined. Hyphal expansion-inhibiting rate was calculated according to the following equation: R=100(dc−dt)/dc (wherein, R: hyphal expansion-inhibiting rate (%), dc: diameter of microbial colony on non-treated flat plate, dt: diameter of microbial colony on chemically-treated flat plate).
# (§3) The results thus obtained were evaluated in 5 stages according to the criteria below:
# Wheat eye spot-causing microbe (Pseudocercoporella herpotrichoides) P.h
# [2] = system: Wheat fusarium blight-causing microbe (Fusarium graminearum); assay type: cell-based; settings: 50 mg/L
# [3] = system: Rice bakanae disease-causing microbe (Gibberella fujikuroi); experiment: Antimicrobial activity to various pathogenic microbes: G.f; settings: 50 mg/L
# Procedure: as §1
# (§4) A flat plate containing a test microbe (wheat leaf blight-causing microbe) cultured separately was punched into pieces with a cork borer having a diameter of 4 mm and the circular plate obtained was placed on the flat plate media containing the chemical described above. The plates were cultured at 25° C. for 14 days after inoculation and the diameter of the microbial colony was determined. Hyphal expansion-inhibiting rate was calculated according to the following equation: R=100(dc−dt)/dc (wherein, R: hyphal expansion-inhibiting rate (%), dc: diameter of microbial colony on non-treated flat plate, dt: diameter of microbial colony on chemically-treated flat plate).
# as §3
# [4] = system: Apple alternaria blotch-causing microbe (Alternaria alternata); experiment: Antimicrobial activity to various pathogenic microbes: A.m; settings: 50 mg/L
# Procedure: as §1, §4
# (§5) In this Test Example, the antimicrobial activity of the inventive compounds to various plant disease-causing fungi and industrial material-eroding microorganisms was studied by the method described in Example 1.
# as §3
# Apple alternaria blotch-causing microbe (Alternaria alternata) A.m
# [5] = system: wheat leaf blight-causing microbe; experiment: Antimicrobial activity to wheat leaf blight-causing microbe (PDA plate, hyphal expansion inhibition); assay type: cell-based, Septoria tritici; settings: Concentration 50 mg/L, PDA medium, 25° C., 14 days; for inhibition at 50 µg/mL: 336 h, read-out: Growth inhibition
# Procedure: In this Test Example, antimicrobial activity of the inventive compounds to wheat leaf blight-causing microbe was determined and compared with that of the comparative compound (1).
# [6] = system: Barley scald-causing microbe (Rhynchosporium secalis); experiment: Antimicrobial activity to various pathogenic microbes: R.sec; settings: 50 mg/L
# Procedure: as §1, §4, §5, §3
# Barley scald-causing microbe (Rhynchosporium secalis) R.sec
# [7] = system: Sclerotinia rot-causing microbe (Sclerotinia sclerotiorum); experiment: Antimicrobial activity to various pathogenic microbes: S.s; settings: 50 mg/L
# Procedure: as §1, §4, §3
# Sclerotinia rot-causing microbe (Sclerotinia sclerotiorum) S.s
# [8] = system: wheat leaf rust-causing microbe; experiment: Wheat leaf rust-controlling activity (foliar spray, pot test); assay type: in vivo, Puccinia recondita; settings: Concentration 25 g/ha; wettable powder sprayed on wheat (Norin No. 61), 9 to 14 days after inoculation
# [9] = system: Cucumber Fusarium wilt-causing microbe (Fusarium oxysporum); experiment: Antimicrobial activity to various pathogenic microbes: F.c; settings: 50 mg/L
# Procedure: as §1, §4, §3
# [10] = system: Rice blast-causing microbe (Pyricularia oryzae); assay type: cell-based; settings: 50 mg/L
# [11] = system: Wheat glume blotch-causing microbe (Phaeosphaeria nodorum); experiment: Antimicrobial activity to various pathogenic microbes: P.n; settings: 50 mg/L
# Procedure: as §1, §4, §5, §3
# Wheat glume blotch-causing microbe (Phaeosphaeria nodorum) P.n
# [12] = system: Barley loose smut-causing microbe (Ustilago nuda); experiment: Antimicrobial activity to various pathogenic microbes: U.n; settings: 50 mg/L
# Procedure: as §1, §2, §3
# Barley loose smut-causing microbe (Ustilago nuda) U.n
# [13] = system: Gray mold-causing microbe (Botrytis cinerea); experiment: Antimicrobial activity to various pathogenic microbes: B.c; settings: 50 mg/L
# Procedure: as §1, §4, §5, §3
# Gray mold-causing microbe (Botrytis cinerea) B.c
# [14] = system: wheat powdery mildew-causing microbes; experiment: Controlling activity to wheat powdery mildew of seed treatment (pot test); assay type: in vivo, Erysiphe graminis f. sp tritici; settings: 2 mg in DMSO applied to wheat seeds 1 g, 14 to 28 days after seeding
# Procedure: Controlling activity to wheat powdery mildew was examined in a pot test. Each of the inventive compounds […]-53, and a comparative compound (1) was weighed in an amount of 2 mg and dissolved in DMSO (18 μl). The solution thus prepared was applied to wheat seeds 1 g in a vial, 8 wheat seeds were seeded in a 80 cm^2 pot. The wheat was grown, as water was supplied from blow, in a greenhouse where wheat powdery mildew-causing microbes are present abundantly. The incidence rate was determined and the controlling rate and additionally the controlling index calculated 14 to 28 days after seeding. The controlling rate was calculated and the wheat powdery mildew controlling index determined according to the following equation: Controlling rate=(1-Incidence rate in treated region/Incidence rate in non-treated region)×100(%) [table]
# [15] = system: wheat; experiment: Damage to wheat (growth inhibition) by seed treatment (pot test); settings: 2 mg in DMSO applied to wheat seeds 1 g, 14 to 28 days after seeding, larger index = smaller damage
smiles,measurement,setting,value
"C=CCOC(=O)[C@]1(C)CC[C@@H](Cc2ccc(Cl)cc2)[C@]1(O)Cn1cncn1 (racemic) [Compound I-4, allyl-(1RS,2RS,3SR)-3-(4-chlorobenzyl)-2-hydroxy-1-methyl-2-(1H-1,2,4-triazol-1-ylmethyl)cyclopentanecarboxylate]",Growth inhibition (hyphal expansion-inhibiting rate grade) P.h,[1],5 (hyphal expansion-inhibiting rate: 80% or more)
same,Growth inhibition (hyphal expansion-inhibiting rate grade) F.g,[2],5 (hyphal expansion-inhibiting rate: 80% or more)
same,Growth inhibition (hyphal expansion-inhibiting rate grade) G.f,[3],5 (hyphal expansion-inhibiting rate: 80% or more)
same,Growth inhibition (hyphal expansion-inhibiting rate grade) A.m,[4],5 (hyphal expansion-inhibiting rate: 80% or more)
same,inhibition at 50 µg/mL,[5],> 80%
same,Growth inhibition (hyphal expansion-inhibiting rate grade) R.sec,[6],5 (hyphal expansion-inhibiting rate: 80% or more)
same,Growth inhibition (hyphal expansion-inhibiting rate grade) S.s,[7],5 (hyphal expansion-inhibiting rate: 80% or more)
same,Controlling index,[8],5 (81 to 100)
same,Growth inhibition (hyphal expansion-inhibiting rate grade) F.c,[9],5 (hyphal expansion-inhibiting rate: 80% or more)
same,Growth inhibition (hyphal expansion-inhibiting rate grade) P.o,[10],5 (hyphal expansion-inhibiting rate: 80% or more)
same,Growth inhibition (hyphal expansion-inhibiting rate grade) P.n,[11],5 (hyphal expansion-inhibiting rate: 80% or more)
same,Growth inhibition (hyphal expansion-inhibiting rate grade) U.n,[12],5 (hyphal expansion-inhibiting rate: 80% or more)
same,Growth inhibition (hyphal expansion-inhibiting rate grade) B.c,[13],5 (hyphal expansion-inhibiting rate: 80% or more)
"CCCOC(=O)[C@]1(C)CC[C@H](Cc2ccc(Cl)cc2)[C@@]1(O)Cn1cncn1 (racemic) [Compound I-136, n-propyl-(1RS,2SR,3RS)-3-(4-chlorobenzyl)-2-hydroxy-1-methyl-2-(1H-1,2,4-triazol-1-ylmethyl)cyclopentanecarboxylate]",Growth inhibition (hyphal expansion-inhibiting rate grade) P.h,[1],5 (hyphal expansion-inhibiting rate: 80% or more)
same,Growth inhibition (hyphal expansion-inhibiting rate grade) F.g,[2],5 (hyphal expansion-inhibiting rate: 80% or more)
same,Growth inhibition (hyphal expansion-inhibiting rate grade) G.f,[3],5 (hyphal expansion-inhibiting rate: 80% or more)
same,Growth inhibition (hyphal expansion-inhibiting rate grade) A.m,[4],5 (hyphal expansion-inhibiting rate: 80% or more)
same,inhibition at 50 µg/mL,[5],> 80%
same,Growth inhibition (hyphal expansion-inhibiting rate grade) R.sec,[6],5 (hyphal expansion-inhibiting rate: 80% or more)
same,Growth inhibition (hyphal expansion-inhibiting rate grade) S.s,[7],5 (hyphal expansion-inhibiting rate: 80% or more)
same,Controlling index Wheat powdery mildew,[14],5 (Controlling rate: 40 or more)
same,Controlling index,[8],5 (81 to 100)
same,Growth inhibition (hyphal expansion-inhibiting rate grade) F.c,[9],5 (hyphal expansion-inhibiting rate: 80% or more)
same,Damage index Growth inhibition,[15],4 (1% or more and less than 20%)
same,Growth inhibition (hyphal expansion-inhibiting rate grade) P.o,[10],5 (hyphal expansion-inhibiting rate: 80% or more)
same,Growth inhibition (hyphal expansion-inhibiting rate grade) P.n,[11],5 (hyphal expansion-inhibiting rate: 80% or more)
same,Growth inhibition (hyphal expansion-inhibiting rate grade) U.n,[12],5 (hyphal expansion-inhibiting rate: 80% or more)
same,Growth inhibition (hyphal expansion-inhibiting rate grade) B.c,[13],5 (hyphal expansion-inhibiting rate: 80% or more)
"CC(C)OC(=O)[C@]1(C)CC[C@H](Cc2ccc(Cl)cc2)[C@@]1(O)Cn1cncn1 (racemic) [Compound I-137, isopropyl-(1RS,2SR,3RS)-3-(4-chlorobenzyl)-2-hydroxy-1-methyl-2-(1H-1,2,4-triazol-1-ylmethyl)cyclopentanecarboxylate]",Growth inhibition (hyphal expansion-inhibiting rate grade) P.h,[1],5 (hyphal expansion-inhibiting rate: 80% or more)
same,Growth inhibition (hyphal expansion-inhibiting rate grade) F.g,[2],5 (hyphal expansion-inhibiting rate: 80% or more)
same,Growth inhibition (hyphal expansion-inhibiting rate grade) G.f,[3],5 (hyphal expansion-inhibiting rate: 80% or more)
same,Growth inhibition (hyphal expansion-inhibiting rate grade) A.m,[4],5 (hyphal expansion-inhibiting rate: 80% or more)
same,inhibition at 50 µg/mL,[5],> 80%
same,Growth inhibition (hyphal expansion-inhibiting rate grade) R.sec,[6],5 (hyphal expansion-inhibiting rate: 80% or more)
same,Growth inhibition (hyphal expansion-inhibiting rate grade) S.s,[7],5 (hyphal expansion-inhibiting rate: 80% or more)
same,Controlling index Wheat powdery mildew,[14],5 (Controlling rate: 40 or more)
same,Controlling index,[8],5 (81 to 100)
same,Growth inhibition (hyphal expansion-inhibiting rate grade) F.c,[9],5 (hyphal expansion-inhibiting rate: 80% or more)
same,Damage index Growth inhibition,[15],5
same,Growth inhibition (hyphal expansion-inhibiting rate grade) P.o,[10],5 (hyphal expansion-inhibiting rate: 80% or more)
same,Growth inhibition (hyphal expansion-inhibiting rate grade) P.n,[11],5 (hyphal expansion-inhibiting rate: 80% or more)
same,Growth inhibition (hyphal expansion-inhibiting rate grade) U.n,[12],5 (hyphal expansion-inhibiting rate: 80% or more)
same,Growth inhibition (hyphal expansion-inhibiting rate grade) B.c,[13],5 (hyphal expansion-inhibiting rate: 80% or more)
"COC(=O)[C@@]1(CCl)CC[C@H](Cc2ccc(F)cc2)[C@@]1(O)Cn1cncn1 (racemic) [Compound I-78, methyl-(1RS, 2SR,3RS)-3-(4-fluorobenzyl)-1-chloromethyl-2-hydroxy-2-(1H-1,2,4-triazol-1-ylmethyl)cyclopentanecarboxylate]",Growth inhibition (hyphal expansion-inhibiting rate grade) P.h,[1],5 (hyphal expansion-inhibiting rate: 80% or more)
same,Growth inhibition (hyphal expansion-inhibiting rate grade) F.g,[2],5 (hyphal expansion-inhibiting rate: 80% or more)
same,Growth inhibition (hyphal expansion-inhibiting rate grade) G.f,[3],5 (hyphal expansion-inhibiting rate: 80% or more)
same,Growth inhibition (hyphal expansion-inhibiting rate grade) A.m,[4],5 (hyphal expansion-inhibiting rate: 80% or more)
same,inhibition at 50 µg/mL,[5],> 80%
same,Growth inhibition (hyphal expansion-inhibiting rate grade) R.sec,[6],5 (hyphal expansion-inhibiting rate: 80% or more)
same,Growth inhibition (hyphal expansion-inhibiting rate grade) S.s,[7],5 (hyphal expansion-inhibiting rate: 80% or more)
same,Controlling index,[8],5 (81 to 100)
same,Growth inhibition (hyphal expansion-inhibiting rate grade) F.c,[9],5 (hyphal expansion-inhibiting rate: 80% or more)
same,Growth inhibition (hyphal expansion-inhibiting rate grade) P.o,[10],5 (hyphal expansion-inhibiting rate: 80% or more)
same,Growth inhibition (hyphal expansion-inhibiting rate grade) P.n,[11],5 (hyphal expansion-inhibiting rate: 80% or more)
same,Growth inhibition (hyphal expansion-inhibiting rate grade) U.n,[12],5 (hyphal expansion-inhibiting rate: 80% or more)
same,Growth inhibition (hyphal expansion-inhibiting rate grade) B.c,[13],5 (hyphal expansion-inhibiting rate: 80% or more)
"C#CCOC(=O)[C@]1(C)CC[C@H](Cc2ccc(Cl)cc2)[C@@]1(O)Cn1cncn1 (racemic) [Compound I-135, 2-propynyl-(1RS,2SR,3RS)-3-(4-chlorobenzyl)-2-hydroxy-1-methyl-2-(1H-1,2,4-triazol-1-ylmethyl)cyclopentanecarboxylate]",Growth inhibition (hyphal expansion-inhibiting rate grade) P.h,[1],5 (hyphal expansion-inhibiting rate: 80% or more)
same,Growth inhibition (hyphal expansion-inhibiting rate grade) F.g,[2],5 (hyphal expansion-inhibiting rate: 80% or more)
same,Growth inhibition (hyphal expansion-inhibiting rate grade) G.f,[3],5 (hyphal expansion-inhibiting rate: 80% or more)
same,Growth inhibition (hyphal expansion-inhibiting rate grade) A.m,[4],5 (hyphal expansion-inhibiting rate: 80% or more)
same,Growth inhibition,[5],5 (hyphal expansion-inhibiting rate: 80% or more)
same,Growth inhibition (hyphal expansion-inhibiting rate grade) R.sec,[6],5 (hyphal expansion-inhibiting rate: 80% or more)
same,Growth inhibition (hyphal expansion-inhibiting rate grade) S.s,[7],5 (hyphal expansion-inhibiting rate: 80% or more)
same,Controlling index,[8],5 (81 to 100)
same,Growth inhibition (hyphal expansion-inhibiting rate grade) F.c,[9],5 (hyphal expansion-inhibiting rate: 80% or more)
same,Growth inhibition (hyphal expansion-inhibiting rate grade) P.o,[10],5 (hyphal expansion-inhibiting rate: 80% or more)
same,Growth inhibition (hyphal expansion-inhibiting rate grade) P.n,[11],5 (hyphal expansion-inhibiting rate: 80% or more)
same,Growth inhibition (hyphal expansion-inhibiting rate grade) U.n,[12],5 (hyphal expansion-inhibiting rate: 80% or more)
same,Growth inhibition (hyphal expansion-inhibiting rate grade) B.c,[13],5 (hyphal expansion-inhibiting rate: 80% or more)
